These are literature values, as cited in patent US9861647B2 (Prelief Inc., priority 2007, dated 2018).

The subject of the data set is ragweed sensitized Beagle dogs. The note with it: Rudolph et al., 2003, cited from earlier work.

Like-named read-outs stand apart in the source and are kept apart here.

For the compound `CN(C)CCC(c1ccc(Cl)cc1)c1ccccn1` (centres unmarked) [chlorpheniramine], the RW-induced nasal congestion entry (chlorpheniramine 10 mg/kg) is recorded as “can prevent the development of RW-induced nasal congestion”. With `CN[C@@H](C)[C@@H](O)c1ccccc1` [pseudoephedrine], the RW-induced nasal congestion result (pseudoephedrine 3 mg/kg) is recorded as “can prevent the development of RW-induced nasal congestion”.
